What was measured:
Assay in all cases: relative viability (nuclei count vs DMSO), 5 days (fraction); higher = more cells survive
[1] = compound: Cn1nnc2c(C(N)=O)ncn2c1=O [Temozolomide] + CC(C)C[C@H](NC(=O)[C@H](Cc1ccccc1)NC(=O)c1cnccn1)B(O)O [Bortezomib] (partner 0.002 µM)
Summary of the method: (§1)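 A single step with final 0.05% Triton X-100, 1% formaldehyde and 1 ug/ml Hoechst fixed the cells and stained nuclei 5 days after treatment. Lung cancer cell lines in 1536-well plates had been treated by pin tool the day after seeding with one drug alone or a fixed anchor-drug dose plus five library-drug doses (not always all listed) in √10 steps, and nuclei were counted on 4× images. Relative viability is the ratio of nuclei in treated wells to nuclei in vehicle wells, taken as the median of duplicate plates.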

AZD5582 + Phenformin = compound: C[C@@H](C(=O)N[C@@H](C1CCCCC1)C(=O)N2CCC[C@H]2C(=O)N[C@@H]3[C@@H](CC4=CC=CC=C34)OCC#CC#CCO[C@@H]5CC6=CC=CC=C6[C@@H]5NC(=O)[C@@H]7CCCN7C(=O)[C@H](C8CCCCC8)NC(=O)[C@H](C)NC)NC [AZD5582] + N=C(N)NC(=N)NCCc1ccccc1 [Phenformin] (partner 250 µM)
Summary of the method: as §1

Temozolomide + Lapatinib = compound: Cn1nnc2c(C(N)=O)ncn2c1=O [Temozolomide] + CS(=O)(=O)CCNCc1ccc(-c2ccc3ncnc(Nc4ccc(OCc5cccc(F)c5)c(Cl)c4)c3c2)o1 [Lapatinib] (partner 2 µM)
Summary of the method: as §1

AZD5582 + Tozasertib = compound: C[C@@H](C(=O)N[C@@H](C1CCCCC1)C(=O)N2CCC[C@H]2C(=O)N[C@@H]3[C@@H](CC4=CC=CC=C34)OCC#CC#CCO[C@@H]5CC6=CC=CC=C6[C@@H]5NC(=O)[C@@H]7CCCN7C(=O)[C@H](C8CCCCC8)NC(=O)[C@H](C)NC)NC [AZD5582] + Cc1cc(Nc2cc(N3CCN(C)CC3)nc(Sc3ccc(NC(=O)C4CC4)cc3)n2)n[nH]1 [Tozasertib] (partner 0.1 µM)
Summary of the method: as §1

Row | Cell Line | relative viability ([1]; first compound 0.2 µM) | relative viability ([1]; first compound 0.6325 µM) | relative viability ([1]; first compound 2 µM) | relative viability ([1]; first compound 6.325 µM) | relative viability ([1]; first compound 20 µM) | relative viability (AZD5582 + Phenformin; first compound 0.001581 µM) | relative viability (AZD5582 + Phenformin; first compound 0.005 µM) | relative viability (AZD5582 + Phenformin; first compound 0.05 µM) | relative viability (Temozolomide + Lapatinib; first compound 0.2 µM) | relative viability (Temozolomide + Lapatinib; first compound 0.6325 µM) | relative viability (Temozolomide + Lapatinib; first compound 2 µM) | relative viability (Temozolomide + Lapatinib; first compound 6.325 µM) | relative viability (Temozolomide + Lapatinib; first compound 20 µM) | relative viability (AZD5582 + Tozasertib; first compound 0.001581 µM) | relative viability (AZD5582 + Tozasertib; first compound 0.005 µM) | relative viability (AZD5582 + Tozasertib; first compound 0.05 µM) | relative viability (AZD5582 + Phenformin; first compound 0.01581 µM) | relative viability (AZD5582 + Tozasertib; first compound 0.01581 µM)
1 | HCC-366 | 1.07 | 1.07 | 1.1 | 1.08 | 1.06 | 0.575 | 0.564 | 0.708 | 1.18 | 1 | 1.1 | 1.08 | 1.07 | 0.0633 | 0.134 | 0.155 |  | 
2 | HCC-827 | 1.2 | 1.1 | 1.02 | 1.05 | 0.32 | 0.391 | 0.383 | 0.387 | 0.207 | 0.238 | 0.191 | 0.191 | 0.195 | 0.398 | 0.489 | 0.396 | 0.368 | 0.436
3 | HOP-62 | 0.801 | 0.88 | 0.911 | 0.59 | 0.932 | 0.515 | 0.676 | 0.711 | 1.29 | 1.02 | 1.05 | 1.05 | 0.75 | 0.318 | 0.339 | 0.32 | 0.666 | 0.35
4 | IA-LM | 0.794 | 0.988 | 1.04 | 0.742 | 0.945 |  |  |  | 0.913 | 0.976 | 0.935 | 0.758 | 0.716 |  |  |  |  | 
5 | LC-2-ad | 1.17 | 0.984 | 1.02 | 0.945 | 0.945 | 0.607 | 0.64 | 0.585 | 0.961 | 1.02 | 0.962 | 0.964 | 0.895 | 0.363 | 0.493 | 0.4 | 0.338 | 0.418
6 | LCLC-97TM1 | 1.48 | 0.594 | 0.749 | 0.68 | 0.687 | 0.402 | 0.467 | 0.409 | 0.929 | 1.28 | 0.655 | 0.611 | 1.21 | 0.206 | 0.235 | 0.187 | 0.2 | 0.206
7 | LCLC-103H | 1.13 | 1.09 | 1.04 | 1.08 | 1.01 | 0.328 | 0.316 | 0.269 |  |  |  |  |  | 0.377 | 0.409 | 0.315 | 0.272 | 0.455
8 | LK-2 |  |  |  |  |  | 0.433 | 0.588 | 0.402 | 1.01 | 1.04 | 0.796 | 0.611 | 0.392 | 0.161 | 0.174 | 0.182 | 0.393 | 0.149
9 | LOU-NH91 | 0.487 | 0.514 | 0.565 | 0.543 | 0.456 | 0.716 | 0.698 | 0.741 | 0.747 | 0.782 | 0.791 | 0.732 | 0.763 | 0.594 | 0.679 | 0.613 | 0.592 | 0.679
10 | NCI-H358 |  |  |  |  |  | 0.366 | 0.374 | 0.313 | 0.538 | 0.572 | 0.475 | 0.439 | 0.419 | 0.126 | 0.109 | 0.101 | 0.399 | 0.102

Reference: the supplement of paper PMC10307832
